Values of other authors, collected in patent publication US12029733B2, “Treatment of sepsis and related inflammatory conditions by local neuromodulation of the autonomic nervous system” (Tulavi Therapeutics, Inc., priority 2016, dated 2024).

Columns and labels:
GPR120 = molecular target: T1, GPR120 (Homo sapiens, UniProt Q5NUL3); conditions: fluorescent indicator measurement of Ca2+ mobilization
T1 sequence (Q5NUL3 1-361): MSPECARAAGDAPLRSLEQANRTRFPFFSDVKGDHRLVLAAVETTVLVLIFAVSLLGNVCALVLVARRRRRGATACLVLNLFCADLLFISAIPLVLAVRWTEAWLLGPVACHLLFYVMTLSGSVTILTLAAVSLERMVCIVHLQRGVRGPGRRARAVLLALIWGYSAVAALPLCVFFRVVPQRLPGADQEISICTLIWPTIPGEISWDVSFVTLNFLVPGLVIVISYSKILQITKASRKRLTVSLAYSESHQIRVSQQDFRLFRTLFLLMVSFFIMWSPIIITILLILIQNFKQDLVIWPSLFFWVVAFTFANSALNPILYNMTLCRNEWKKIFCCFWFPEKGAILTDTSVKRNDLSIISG

FFA1 = FFA1 (Homo sapiens, UniProt O14842); conditions: marked *: FFA1 ERK activation (Smith et al. 2009) / aequorin reporter Ca2+ signaling (Kotarsky et al. 2003)
Chain of FFA1 (O14842 whole entry): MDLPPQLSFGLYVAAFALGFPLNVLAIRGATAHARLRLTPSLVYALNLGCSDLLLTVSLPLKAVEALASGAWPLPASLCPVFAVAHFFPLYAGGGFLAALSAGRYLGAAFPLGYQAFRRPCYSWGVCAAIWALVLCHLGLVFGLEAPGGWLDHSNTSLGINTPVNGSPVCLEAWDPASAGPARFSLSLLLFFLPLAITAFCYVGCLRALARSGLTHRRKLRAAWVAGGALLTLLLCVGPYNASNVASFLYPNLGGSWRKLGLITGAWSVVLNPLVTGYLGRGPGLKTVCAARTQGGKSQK

[1] = in vivo
KCC2 = molecular target: T2, KCC2 (Homo sapiens, UniProt Q9H2X9)
T2 sequence (Q9H2X9 1-1139): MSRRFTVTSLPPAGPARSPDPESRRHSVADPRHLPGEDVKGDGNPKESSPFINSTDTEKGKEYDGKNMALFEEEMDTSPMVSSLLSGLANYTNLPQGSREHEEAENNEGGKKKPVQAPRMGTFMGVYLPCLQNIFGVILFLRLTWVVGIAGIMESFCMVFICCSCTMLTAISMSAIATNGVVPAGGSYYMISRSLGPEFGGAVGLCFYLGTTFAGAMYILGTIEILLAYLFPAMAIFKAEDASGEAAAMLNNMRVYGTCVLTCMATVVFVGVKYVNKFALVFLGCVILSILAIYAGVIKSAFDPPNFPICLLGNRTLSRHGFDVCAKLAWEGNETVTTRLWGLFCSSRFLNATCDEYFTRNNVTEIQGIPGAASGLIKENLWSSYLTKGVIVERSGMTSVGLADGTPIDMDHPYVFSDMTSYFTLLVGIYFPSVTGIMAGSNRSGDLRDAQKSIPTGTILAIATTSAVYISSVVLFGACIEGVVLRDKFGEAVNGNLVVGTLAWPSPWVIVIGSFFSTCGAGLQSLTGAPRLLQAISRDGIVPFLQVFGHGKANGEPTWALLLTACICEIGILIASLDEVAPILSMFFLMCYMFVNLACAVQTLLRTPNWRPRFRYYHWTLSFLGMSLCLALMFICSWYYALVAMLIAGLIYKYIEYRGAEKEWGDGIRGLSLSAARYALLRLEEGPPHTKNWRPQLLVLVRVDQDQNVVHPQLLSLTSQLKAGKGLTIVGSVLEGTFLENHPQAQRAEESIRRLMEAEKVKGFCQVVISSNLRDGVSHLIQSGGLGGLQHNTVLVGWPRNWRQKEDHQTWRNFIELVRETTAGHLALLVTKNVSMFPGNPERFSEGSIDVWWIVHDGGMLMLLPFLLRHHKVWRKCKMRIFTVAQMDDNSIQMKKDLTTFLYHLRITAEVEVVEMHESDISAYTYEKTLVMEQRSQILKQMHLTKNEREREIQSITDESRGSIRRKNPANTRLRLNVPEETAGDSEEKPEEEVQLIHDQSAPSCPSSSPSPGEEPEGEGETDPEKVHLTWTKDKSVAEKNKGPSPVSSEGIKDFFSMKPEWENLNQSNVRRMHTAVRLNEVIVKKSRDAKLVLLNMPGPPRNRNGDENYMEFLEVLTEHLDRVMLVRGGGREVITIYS

SMILES	GPR120 pEC50 (GPR120)	FFA1 pEC50 (FFA1)	other results
CCCCCCCC/C=C\CCCCCCCC(=O)O [Oleic acid (C18:l), Oleic acid]	4.5	–	–
CC(C)(CCCCCCCCCCC(C)(C)CC(=O)O)CC(=O)O [MEDICA16]	<5.0	5.5-5.9*	–
N=C(N)NC(=O)c1cnn(-c2cccc3ncccc23)c1C1CC1 [Zoniporide]	–	–	neurotoxic effects [1]: causes peripheral sensory axonopathy
CN(CCOc1ccc(CC2SC(=O)NC2=O)cc1)c1ccccn1 (stereo not shown) [Rosiglitazone]	–	5.0-5.6*	–
CCCCCCCCCCCCCCCC(=O)O [Palmitic Acid (C16:0), Palmitic Acid]	4.3	–	–
Cc1csc(NC(=O)CSc2ccc(-c3ccccc3)nn2)n1 [VU0240551]	–	–	selectivity KCC2 over NKCC1 (KCC2): selective for KCC2 over NKCC1
